{"source": "patent US11524966B1", "about": "(Valo Early Discovery, Inc., priority 2017, dated 2022)"}
{"biological_target": "T1, USP28 (USP28-5(1-1077)-TEV-6*His; LifeSensors) (Homo sapiens, UniProt Q96RU2)", "T1 construct": "construct USP28 (USP28-5(1-1077)-TEV-6*His; LifeSensors); TEV cleavage site (C); 6xHis (C); purchased LifeSensors", "T1 sequence (Q96RU2 1-1077)": "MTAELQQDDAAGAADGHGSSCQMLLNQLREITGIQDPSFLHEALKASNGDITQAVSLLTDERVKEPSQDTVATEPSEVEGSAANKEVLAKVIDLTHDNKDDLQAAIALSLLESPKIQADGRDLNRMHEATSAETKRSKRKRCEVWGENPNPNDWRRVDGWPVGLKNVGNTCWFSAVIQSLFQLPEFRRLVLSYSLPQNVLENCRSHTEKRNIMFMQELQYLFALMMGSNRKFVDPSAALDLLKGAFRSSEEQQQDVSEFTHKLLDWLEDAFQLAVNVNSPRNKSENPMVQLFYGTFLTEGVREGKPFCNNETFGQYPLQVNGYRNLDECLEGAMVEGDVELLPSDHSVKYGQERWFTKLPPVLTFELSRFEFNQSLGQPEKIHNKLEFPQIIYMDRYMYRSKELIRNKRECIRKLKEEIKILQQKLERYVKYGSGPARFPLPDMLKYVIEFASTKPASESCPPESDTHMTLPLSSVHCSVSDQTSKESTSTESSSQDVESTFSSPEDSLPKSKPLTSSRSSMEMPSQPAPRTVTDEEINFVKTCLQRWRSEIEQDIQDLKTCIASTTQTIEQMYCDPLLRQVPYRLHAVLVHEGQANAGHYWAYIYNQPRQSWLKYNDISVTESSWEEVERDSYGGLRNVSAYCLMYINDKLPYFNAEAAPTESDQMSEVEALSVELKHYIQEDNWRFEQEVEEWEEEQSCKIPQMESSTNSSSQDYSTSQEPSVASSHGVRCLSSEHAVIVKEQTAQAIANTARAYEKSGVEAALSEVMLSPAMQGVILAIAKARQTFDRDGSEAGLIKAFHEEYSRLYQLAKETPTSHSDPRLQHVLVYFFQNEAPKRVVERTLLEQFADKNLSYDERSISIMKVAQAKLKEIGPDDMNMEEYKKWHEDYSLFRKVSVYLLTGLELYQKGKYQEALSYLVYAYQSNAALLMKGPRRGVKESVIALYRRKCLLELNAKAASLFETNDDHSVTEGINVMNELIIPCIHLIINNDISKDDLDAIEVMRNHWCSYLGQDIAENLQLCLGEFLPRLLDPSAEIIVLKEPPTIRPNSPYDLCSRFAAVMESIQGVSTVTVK", "test": "Ubiquitin-Rhodamine 110 Assay for USP28 Activity, Example A-1(b)", "type": "biochemical", "settings": "Ubiquitin-Rhodamine 110 assay, Example A-1(b)", "protocol": "(§1) Example A-1(b): Biochemical Assay: Ubiquitin-Rhodamine 110 Assay for USP28 Activity\n(§2) Each assay was performed in a final volume of 20 μL in assay buffer containing 20 mM Tris-HCl (pH 8.0, (1M Tris-HCl, pH 8.0 solution; Corning 46-031-CM)), 2 mM CaCl2) (1M Calcium Chloride solution; Sigma #21114) 2 mM BME (2-Mercaptoethanol; Sigma 63689-25ML-F), 0.01% Prionex ([…] filtered, Sigma #G-0411), and 0.01% Triton X-100. Stock compound solutions were stored at −20° C. as 10 mM in DMSO. Up to 1 month prior to the assay, 2 mM test compounds were pre-dispensed into assay plates (Black, low volume; Corning #3820) and frozen at −20° C. Prestamped assay plates were allowed to come to room temperature on the day of the assay. For the screen, 100 nL of 2 mM was pre-dispensed for a final screening concentration of 10 μM (DMSO(fc)=0.5%). […] Plates were incubated stacked for 90 minutes at room temperature before fluorescence was read on the Envision (Excitation at 485 nm and Emission at 535 nm; Perkin Elmer) or on the PheraSTAR (Excitation at 485 nm and Emission at 535 nm; BMG Labtech).\n(§3) For follow-up studies, each assay was performed in a final volume of 15 μL in assay buffer containing 20 mM Tris-HCl (pH 8.0, (1M Tris-HCl, pH 8.0 solution; Corning 46-031-CM)), 3 mM BME (2-Mercaptoethanol; Sigma 63689-25ML-F), 0.03% BGG (0.22 μM filtered, Sigma, G7516-25G), and 0.01% Triton X-100 (Sigma, T9284-10L). Nanoliter quantities of either an 8-point or 10-point, 3-fold serial dilution in DMSO was pre-dispensed into assay plates (Perkin Elmer, ProxiPlate-384 F Plus, #) for a final test concentration of either 25 μM to 11 nM or 25 μM to 1.3 nM, respectively. Enzyme USP28, construct USP28 (USP28-5(1-1077)-TEV-6*His; LifeSensors) concentration and incubation times were optimized for the maximal signal-to-background while maintaining initial velocity conditions at a fixed substrate concentration. The final concentration of the enzyme in the assay was 75 pM. Final substrate (Ub-Rh110; Ubiquitin-Rhodamine 110, R&D Systems #U-555) concentration was 25 nM with [Ub-Rh110]<<Km. 5 μL of 2× enzyme was added to assay plates (pre-stamped with compound) preincubated with USP28 for 30 minutes and then 5 μL of 2×Ub-Rh110 was added to assay plates. Plates were incubated stacked for 20 minutes at room temperature before 5 μL of stop solution was added (final concentration of 10 mM citric acid (Sigma, 251275-500G)). Fluorescence was read on the Envision (Excitation at 485 nm and Emission at 535 nm; Perkin Elmer) or on the PheraSTAR (Excitation at 485 nm and Emission at 535 nm; BMG Labtech).\n(§4) For assay formats Example A-1(a), A-1(b), and A-2, data were reported as percent inhibition compared with control wells based on the following equation: % inh=1−((FLU−AveLow)/(AveHigh−AveLow)) where FLU=measured Fluorescence, AveLow=average Fluorescence of no enzyme control (n=16), and AveHigh=average Fluorescence of DMSO control (n=16). IC50 values were determined by curve fitting of the standard 4 parameter logistic fitting algorithm included in the Activity Base software package: IDBS XE Designer Model 205. Data is fitted using the Levenburg Marquardt algorithm."}
{"smiles": "Cc1cnc2c(N)c(C(=O)N[C@@H]3CCc4cc(N5CCNCC5)ccc4C3)sc2n1", "note": "(single isomer, unassigned) [Example 11-20]", "USP28 A-1(b) IC50 range": "+ (>2 μM)"}
{"smiles": "Cc1ccc2c(N)c(C(=O)N[C@H]3CCc4cc(N5CCNCC5)ccc4C3)sc2n1", "note": "(single isomer, unassigned) [Example 11-21]", "USP28 A-1(b) IC50 range": "++ (0.2-2 μM)"}
{"smiles": "Cc1ccc2c(N)c(C(=O)N[C@@H]3CCc4cc(N5CCNCC5)ccc4C3)sc2n1", "note": "(single isomer, unassigned) [Example 11-22]", "USP28 A-1(b) IC50 range": "++ (0.2-2 μM)"}
{"smiles": "CN[C@H]1CCN(c2ccc3c(c2)CC[C@H](NC(=O)c2sc4nc(C)cnc4c2N)C3)C1", "note": "(single isomer, unassigned) [Example 11-25]", "USP28 A-1(b) IC50 range": "++ (0.2-2 μM)"}
{"smiles": "CN[C@H]1CCN(c2ccc3c(c2)CC[C@@H](NC(=O)c2sc4nc(C)cnc4c2N)C3)C1", "note": "(single isomer, unassigned) [Example 11-26]", "USP28 A-1(b) IC50 range": "+ (>2 μM)"}
{"smiles": "CN[C@@H]1CCN(c2ccc3c(c2)CC[C@H](NC(=O)c2sc4nc(C)cnc4c2N)C3)C1", "note": "(single isomer, unassigned) [Example 11-27]", "USP28 A-1(b) IC50 range": "++ (0.2-2 μM)"}
{"smiles": "CN[C@@H]1CCN(c2ccc3c(c2)CC[C@@H](NC(=O)c2sc4nc(C)cnc4c2N)C3)C1", "note": "(single isomer, unassigned) [Example 11-28]", "USP28 A-1(b) IC50 range": "+ (>2 μM)"}
{"smiles": "Cc1cnc2c(N)c(C(=O)N[C@H]3CCc4cc(N5C[C@@H]6C[C@H]5CN6)ccc4C3)sc2n1", "note": "(single isomer, unassigned) [Example 11-29]", "USP28 A-1(b) IC50 range": "++ (0.2-2 μM)"}
{"smiles": "Cc1ccc2c(N)c(C(=O)N[C@H]3CCc4cc(N5CC6CNCC(C5)O6)ccc4C3)sc2n1", "note": "(single isomer, unassigned) [Example 449]", "USP28 A-1(b) IC50 range": "++ (0.2-2 μM)"}
{"smiles": "Cc1ccc2c(N)c(C(=O)N[C@H]3COc4cc(N5CCNC6(COC6)C5)ccc4C3)sc2n1", "note": "[Example 4-1, (R)—N-(7-(2-oxa-5,8-diazaspiro[3.5]nonan-8-yl)chroman-3-yl)-3-amino-6-methylthieno[2,3-b]pyridine-2-carboxamide]", "USP28 A-1(b) IC50 range": "++ (0.2-2 μM)"}
{"smiles": "Cc1ccc2c(N)c(C(=O)N[C@@H]3COc4cc(N5C[C@@H]6CNC[C@H]6C5)ccc4C3)sc2n1", "note": "[Example 42, 3-amino-((S)-7-((3aS,6aS)-hexahydropyrrolo[3,4-c]pyrrol-2(1H)-yl)chroman-3-yl)-6-methylthieno[2,3-b]pyridine-2-carboxamide]", "USP28 A-1(b) IC50 range": "++ (0.2-2 μM)"}
{"smiles": "Cc1cnc2c(N)c(C(=O)N[C@H]3CCc4cc(N5CCNCC(F)(F)C5)ccc4C3)sc2n1", "note": "[Example 454, (S)-7-amino-N-(6-(6,6-difluoro-1,4-diazepan-1-yl)-1,2,3,4-tetrahydronaphthalen-2-yl)-3-methylthieno[2,3-b]pyrazine-6-carboxamide]", "USP28 A-1(b) IC50 range": "+++ (0.05-0.2 μM)"}
{"smiles": "O=C(N[C@H]1COc2cc(N3CCNCC3)ccc2C1)c1cnn2c(Br)cccc12", "note": "[Example 457, (R)-7-bromo-N-(7-(piperazin-1-yl)chroman-3-yl)pyrazolo[1,5-a]pyridine-3-carboxamide]", "USP28 A-1(b) IC50 range": "++ (0.2-2 μM)"}
{"biological_target": "T1, USP28 (USP28-5(1-1077)-TEV-6*His; LifeSensors)", "test": "Ubiquitin-Rhodamine 110 Assay for USP28 Activity, Example A-1(b)", "type": "biochemical", "settings": "Ubiquitin-Rhodamine 110 assay, format Example A-1(b)", "protocol": "as §1, §2, §3, §4"}
{"smiles": "Cc1cnc2c(N)c(C(=O)N[C@@H]3CCc4cc(N5C[C@@H]6C[C@H]5CN6)ccc4C3)sc2n1", "note": "(single isomer, unassigned) [Example 11-30]", "USP28 A-1(b) IC50 range": "++ (0.2-2 μM)"}
{"smiles": "Cc1cnc2c(N)c(C(=O)N[C@H]3CCc4cc(N5C[C@H]6C[C@@H]5CN6)ccc4C3)sc2n1", "note": "(single isomer, unassigned) [Example 11-31]", "USP28 A-1(b) IC50 range": "++ (0.2-2 μM)"}
{"smiles": "Cc1cnc2c(N)c(C(=O)N[C@@H]3CCc4cc(N5C[C@H]6C[C@@H]5CN6)ccc4C3)sc2n1", "note": "(single isomer, unassigned) [Example 11-32]", "USP28 A-1(b) IC50 range": "++ (0.2-2 μM)"}
{"smiles": "Cc1nc2sc(C(=O)N[C@@H]3CCc4cc(N5CCNCC5)ccc4C3)c(N)c2s1", "note": "(single isomer, unassigned) [Example 11-34]", "USP28 A-1(b) IC50 range": "++ (0.2-2 μM)"}
{"smiles": "Cc1cnc2c(N)c(C(=O)N[C@@H]3CCc4cc(N5CCNCC5)cc(F)c4C3)sc2n1", "note": "(single isomer, unassigned) [Example 11-37]", "USP28 A-1(b) IC50 range": "+ (>2 μM)"}
{"smiles": "Cc1cnc2c(N)c(C(=O)N[C@H]3CCc4cc(N5CCNCC5)cc(F)c4C3)sc2n1", "note": "(single isomer, unassigned) [Example 11-38]", "USP28 A-1(b) IC50 range": "+++ (0.05-0.2 μM)"}
{"smiles": "Cc1ccc2c(N)c(C(=O)N[C@H]3CCc4cc(N5CC6CNCC(C5)O6)cc(F)c4C3)sc2n1", "note": "(single isomer, unassigned) [Example 11-39]", "USP28 A-1(b) IC50 range": "++ (0.2-2 μM)"}
{"smiles": "Cc1ccc2c(N)c(C(=O)N[C@@H]3CCc4cc(N5CC6CNCC(C5)O6)cc(F)c4C3)sc2n1", "note": "(single isomer, unassigned) [Example 11-40]", "USP28 A-1(b) IC50 range": "++++ (0.001-0.05 μM)"}
{"smiles": "Cc1ccc2c(N)c(C(=O)N[C@@H]3CCc4c(C#N)c(N5CCNCC5)cc(F)c4C3)sc2n1", "note": "[Example 14-9, (R)-3-amino-N-(5-cyano-8-fluoro-6-(piperazin-1-yl)-1,2,3,4-tetrahydronaphthalen-2-yl)-6-methylthieno[2,3-b]pyridine-2-carboxamide]", "USP28 A-1(b) IC50 range": "+ (>2 μM)"}
{"smiles": "Cc1ccc2c(N)c(C(=O)N[C@H]3CCc4c(C#N)c(N5CCNCC5)cc(F)c4C3)sc2n1", "note": "[Example 14-10, (S)-3-amino-N-(5-cyano-8-fluoro-6-(piperazin-1-yl)-1,2,3,4-tetrahydronaphthalen-2-yl)-6-methylthieno[2,3-b]pyridine-2-carboxamide]", "USP28 A-1(b) IC50 range": "+++ (0.05-0.2 μM)"}
{"smiles": "Cc1cnc2c(N)c(C(=O)N[C@@H]3CCc4c(C#N)c(N5CCNCC5)cc(F)c4C3)sc2n1", "note": "[Example 14-11, (R)-7-amino-N-(5-cyano-8-fluoro-6-(piperazin-1-yl)-1,2,3,4-tetrahydronaphthalen-2-yl)-3-methylthieno[2,3-b]pyrazine-6-carboxamide]", "USP28 A-1(b) IC50 range": "++ (0.2-2 μM)"}
